Data taken from patent US20240390306A1, “Monohydrate Salt of Denatonium Acetate” (priority 2021, published 2024).
“Also recorded” adds a separate entry of the source. Where two headings read alike, the source gives them in different places. One block for each compound: values may come before it.

Experiments:
[1] = assay type: physicochemical; conditions: for form by XRPD after storage: closed vial, 6 weeks
From the text: It was then removed from the instrument and a portion immediately analyzed by XRPD. […]
A summary of the characterization data for the samples of Pattern 5 can be found in Table 9.

[2] = Storage under stress conditions (temperature / relative humidity); assay type: physicochemical
From the text: It also lost mass when taken to relative humidity levels of less than 10%.
It also loses mass when taken to relative humidity levels of less than 10%.
It was then removed from the instrument and a portion immediately analyzed by XRPD.

[3] = Particle size distribution; assay type: physicochemical
From the text: The sample was highly crystalline.

[4] = Polymorph screen: solvent addition to ca. 10 mg DAM, initial observation (solubility); assay type: physicochemical
Experimental: The resultant samples were refrigerated (solutions) or shaken at room temperature (suspensions) for several days. The samples that had initially formed solutions were examined for signs of solid formation after refrigeration. If solid material had formed, it was analyzed by XRPD. If no solid had formed the vials were uncapped and the solutions evaporated, and solid residues analyzed by XRPD. For samples which had initially formed suspensions-if solid was still present it was analyzed by XRPD. The supernatant from the suspension was filtered and then the filtrates were then treated as the solutions above. In some experiments further solid was obtained from evaporation of the filtrates and was analyzed by XRPD where the quantity of material allowed.

[5] = as above; assay type: physicochemical; remark: listed apart in the source
[6] = Gravimetric Vapor Sorption (GVS) experiments; assay type: physicochemical
Experimental: Several Gravimetric Vapor Sorption (GVS) experiments were carried out to investigate the behavior of DAM over a range of different relative humidity levels. […] This experiment used a similar method to GVS 1 without the steps involving 90% RH where the large mass changes were observed and equilibrium was not reached. […] Most of the mass change (1.3-1.4% increase) occurred between 0-10% RH. […] It also loses mass when taken to relative humidity levels of less than 10%.

form stability [1]: metastable
form after standing ([1]; ambient laboratory conditions, within a few hours): converts to Pattern 1
form by XRPD after storage [1]: converted to Pattern 1
form by XRPD after storage ([1]; listed as DAM Pattern 5): Conversion to Pattern 1 by XRPD
form by XRPD after standing ([1]; on XRPD disc at room temperature overnight, listed as DAM Pattern 5): Conversion to Pattern 1 by XRPD
form by XRPD after standing ([1]; on XRPD disc, ambient laboratory conditions, 4 hours, listed as DAM Pattern 5): Conversion to Pattern 1 by XRPD
SMILES: CC(=O)[O-].CC[N+](CC)(CC(=O)Nc1c(C)cccc1C)Cc1ccccc1 [Pattern 5]
form by XRPD after standing ([1]; on XRPD disc at room temperature overnight): convert to Pattern 1; also recorded: reverted to Pattern 1

form by XRPD after storage ([2]; 25° C., 96% RH, 7 days): Amorphous
PSD D10 [3]: 1.62 μm
PSD D50 [3]: 23.09 μm
Initial observation ([4]; ca. 10 mg in 1-Pentanol, 50 μL): Soluble
Initial observation ([4]; ca. 10 mg in 2-Butanol, 50 μL): Soluble
Initial observation ([4]; ca. 10 mg in 2-Ethoxyethanol, 25 μL): Soluble
Initial observation ([4]; ca. 10 mg in 2-Methoxyethanol, 25 μL): Soluble
Initial observation ([4]; ca. 10 mg in Acetic acid, 25 μL): Soluble
Initial observation ([4]; ca. 10 mg in Acetone, 1000 μL): Soluble
Initial observation ([4]; ca. 10 mg in Diisopropyl ether, 1000 μL): Suspension
Initial observation ([4]; ca. 10 mg in Dimethylsulfoxide, 100 μL): Solution
Initial observation ([4]; ca. 10 mg in Ethyl acetate, 1000 μL): Suspension
Initial observation ([4]; ca. 10 mg in Ethyl formate, 50 μL): Soluble
Initial observation ([4]; ca. 10 mg in MeCN + 5% water, 50 μL): Solution
Initial observation ([4]; ca. 10 mg in MeOH + 5% water, 25 μL): Solution
Initial observation ([4]; ca. 10 mg in Methylethyl ketone, 800 μL): Soluble
Initial observation ([4]; ca. 10 mg in Tetrahydrofuran, 1000 μL): Suspension
Initial observation ([5]; ca. 10 mg in 1,2-Dimethoxyethane, 1000 μL): Suspension
Initial observation ([5]; ca. 10 mg in 1,4-Dioxane, 1000 μL): Suspension
Initial observation ([5]; ca. 10 mg in 1-Butanol, 50 μL): Soluble
Initial observation ([5]; ca. 10 mg in 1-Propanol, 25 μL): Soluble
Initial observation ([5]; ca. 10 mg in 2-Methyl-1-Propanol, 50 μL): Soluble
Initial observation ([5]; ca. 10 mg in 2-Pentanone, 1000 μL): Suspension
Initial observation ([5]; ca. 10 mg in 2-Propanol, 50 μL): Soluble
Initial observation ([5]; ca. 10 mg in 3-Methyl-1-Butanol, 50 μL): Soluble
Initial observation ([5]; ca. 10 mg in 4-Methyl-2-pentanone, 1000 μL): Suspension
Initial observation ([5]; ca. 10 mg in Acetone + 5% water, 50 μL): Solution
Initial observation ([5]; ca. 10 mg in Acetonitrile, 200 μL): Soluble
Initial observation ([5]; ca. 10 mg in Anisole, 750 μL): Suspension
Initial observation ([5]; ca. 10 mg in Benzonitrile, 500 μL): Nearly all
Initial observation ([5]; ca. 10 mg in Benzyl alcohol, 25 μL): Solution
Initial observation ([5]; ca. 10 mg in Butyl acetate, 1000 μL): Suspension
Initial observation ([5]; ca. 10 mg in Chloroform, 50 μL): Soluble
Initial observation ([5]; ca. 10 mg in Cumene, 1000 μL): Suspension
Initial observation ([5]; ca. 10 mg in Diethyl ether, 1000 μL): Suspension
Initial observation ([5]; ca. 10 mg in EtOH + 5% water, 25 μL): Solution
Initial observation ([5]; ca. 10 mg in Ethanol, 25 μL): Soluble
Initial observation ([5]; ca. 10 mg in Formic acid, 25 μL): Soluble
Initial observation ([5]; ca. 10 mg in IPA + 5% water, 50 μL): Solution
Initial observation ([5]; ca. 10 mg in Isobutyl acetate, 1000 μL): Suspension
Initial observation ([5]; ca. 10 mg in Isopropyl acetate, 1000 μL): Suspension
Initial observation ([5]; ca. 10 mg in Methanol, 25 μL): Soluble
Initial observation ([5]; ca. 10 mg in Methyl acetate, 1000 μL): Suspension
Initial observation ([5]; ca. 10 mg in Methylbutyl ketone, 1000 μL): Suspension
Initial observation ([5]; ca. 10 mg in Pentane, 1000 μL): Suspension
Initial observation ([5]; ca. 10 mg in Propyl acetate, 1000 μL): Suspension
Initial observation ([5]; ca. 10 mg in Toluene, 1000 μL): Suspension
Initial observation ([5]; ca. 10 mg in Water, 20 μL): Soluble
Initial observation ([5]; ca. 10 mg in heptane, 1000 μL): Suspension
Initial observation ([5]; ca. 10 mg in t-Butanol, 100 μL): Soluble
Initial observation ([5]; ca. 10 mg in t-Butylmethyl ether, 1000 μL): Suspension
SMILES: CC(=O)[O-].CC[N+](CC)(CC(=O)Nc1c(C)cccc1C)Cc1ccccc1 [DAM, denatonium acetate monohydrate]
form by XRPD after storage ([2]; 0% RH (open vial in GVS instrument, 2 days), acetate monohydrate): converted to Pattern 5; also recorded: consistent with Pattern 5; also recorded: change in form to Pattern 5
form by XRPD after storage ([2]; 40° C., 75% RH, 7 days): Shows no change in form by XRPD after 7 days
sample appearance after GVS ([6]; post GVS 1 (40-90-0-90-0-40)): sorption cycle. Sample had formed a solid mass with powdery
sample appearance after GVS ([6]; post GVS 2 (40-80-0-80-0-40), acetate monohydrate): remained as a free-flowing powder; also recorded: Sample remained free flowing solid
sample appearance after GVS ([6]; post GVS 3 (40-0-80-0-80-0-40), acetate monohydrate): remained as a free-flowing powder; also recorded: Sample remained free flowing solid
